From patent publication US11458149B1, “TEAD inhibitors and uses thereof” (Ikena Oncology, Inc., priority 2019, dated 2022)
Like-named read-outs stand apart in the source and are kept apart here.

Legend:
TEAD = TEAD reporter assay (Hippo Pathway TEAD Reporter - MCF7 cell line, luciferase); format: cell-based, human; settings: read-out: TEAD Reporter Assay EC50
From the text: TEAD inhibition can be assayed using Hippo Pathway TEAD Reporter—MCF7 Cell Line (BPS Bioscience, Catalog #: 60618).
The TEAD Reporter—MCF7 cell line contains the firefly luciferase gene under the control of TEAD responsive elements stably integrated into the human breast cancer cell line, MCF7. Inside the cells, basal unphosphorylated YAP/TAZ remains in the nucleus and induces the constitutive expression of luciferase reporter. The cell line is validated for the inhibition of the expression of luciferase reporter by the activators of the Hippo pathway.
• 1) Harvest TEAD Reporter—MCF7 cells from culture in growth medium and seed cells at a density of 35,000 cells per well into white clear-bottom 96-well microplate in 45 μl of assay medium. • 2) Incubate cells at 37° C. in a CO2 incubator for overnight. • 3) Dilute the activators (H2O2 or okadaic acid) stock in assay medium. Add 5 μl of diluted activators to the wells. The final concentration of DMSO in assay medium is 0.1%. • 4) Add 5 μl of assay medium with same concentration of DMSO without activator to control wells. • 5) Add 50 μl of assay medium with DMSO to cell-free control wells (for determining background luminescence). • 6) Set up each treatment in at least triplicate. • 7) Incubate cells at 37° C. in a CO2 incubator for 5-6 hours. • 8) Perform luciferase assay using the ONE-Step™ Luciferase Assay System following the protocol provided: Add 100 μl of ONE-Step™ Luciferase reagent per well and rock at room temperature for ˜15 minutes. Measure luminescence using a luminometer. • 9) Data Analysis: Obtain the background-subtracted luminescence by subtracting the average background luminescence (cell-free control wells) from the luminescence reading of all wells.
(§1) Certain compounds were tested in TEAD reporter assay, and in H226 and H28. A: EC50<0.1 uM; B: 0.1 uM≤EC50≤0.5 uM; C: EC50>0.5 uM.

H28 = experiment: Anti-proliferation assay in H28 cells; format: cell-based; settings: Homo sapiens, NCI-H28
Experimental: as §1
(§2) Individual cell lines were grown in medium according to supplier instructions and seeded into 96-well plates at a density that ensured logarithmic growth over 72 hours. TEAD inhibitor compounds were administered to cells at a top concentration of 10 μm and subsequently a 10 point 3-fold serial dilution was conducted. After 72 hours, proliferation was quantified using Cell TITERGLO™ (Promega, Inc.) and compared to vehicle control. IC50 and EC50 values were generated using XLFit curve fitting software.
The effect of isomer 2 of compound I-12 on cell proliferation is dependent on the presence of a Hippo/NF2 mutation. No effect is seen by isomer 2 of compound I-12 on the NF2 wild-type H28 cell line.

H226 = experiment: Anti-proliferation assay in H226 cells; format: cell-based, human; settings: read-out: H226 EC50
Experimental: as §1, §2

[1] = Mouse pharmacokinetics study; format: in vivo; settings: BALB/c mice, 10 mg/kg oral gavage, 5% DMS/95% PEG400, plasma
Experimental: Formulated compounds were administered intravenously or orally via gavage to BALB/c mice. Typically, at 0.167, 0.5, 1, 2, 4, 6, 12, and 24 hours post-dose, blood was collected and processed to plasma by centrifugation and stored at −80° C. until analysis. Internal standard was added to each sample prior to protein precipitation with acetonitrile or TCA. The precipitates were filtered through a filter plate and the samples were analyzed by LC/MS/MS. A standard curve was prepared in plasma from typically from 1.0 ng/mL to 3000 ng/mL and processed in the same manner as the samples. Sample analysis was typically performed on a suitable LC/MS/MS system fitted with an analytical UPLC column and compounds eluted from the analytical column with a gradient from 30-95% 0.1% formic acid (v/v) in ACN: 0.1% formic acid (v/v) in water. Mass spectrometric detection of test compound and the internal standard was performed by […] in positive mode. The pharmacokinetics of each compound were analyzed by Phoenix WinNonlin software (Pharsight, St. Louis, Mo.) via noncompartmental analysis. FIG. 4 depicts pharmacokinetic (PK) properties of isomer 1 of compound I-186 following dosing in BALB/c mice.

[2] = Homo sapiens, MCF7, TEAD Reporter - MCF7 cells
[3] = Homo sapiens, NCI-H226, H226 cells

Row | SMILES | EC50 (TEAD; [2]) [nM] | EC50 (H28) [nM] | EC50 (H226; [3]) [nM] | AUC(0-t) ([1]; mouse) [ng·h/mL] | Cmax ([1]; mouse, read-out: Cmax) [ng/mL] | further results
1 | C=CC(=O)Nc1ccc(C)c(Nc2cccc(C(F)(F)F)c2)c1 [Compound I-33, N-[4-Methyl-3-[3-(trifluoromethyl)anilino]phenyl]prop-2-enamide] | < 100 | > 500 | < 100 |  |  | 
2 | C=CC(=O)Nc1ccc(C)c(Oc2cc(C(F)(F)F)ccn2)c1 [Compound I-31, N-[4-methyl-3-[[4-(trifluoromethyl)-2-pyridyl]oxy]phenyl]prop-2-enamide] | < 100 | > 500 | < 100 |  |  | 
3 | C=CC(=O)NC1CCN(Cc2ccc(C(F)(F)F)cc2)c2ccccc21 (stereo in doubt) [Compound I-203, N-[(4R)-1-[[4-(Trifluoromethyl)phenyl]methyl]-3,4-dihydro-2H-quinolin-4-yl]prop-2-enamide] |  |  |  | 275 | 63.3 | 
4 | C=CC(=O)N[C@H]1[C@@H]2CCN(Cc3ccc(C(F)(F)F)cc3)C[C@@H]21 [Compound I-208, N-[(1R,6R,7S)-4-[[4-(trifluoromethyl)phenyl]methyl]-4-azabicyclo[4.1.0]heptan-7-yl]prop-2-enamide] |  |  |  | 226 | 318 | 
5 | C=CC(=O)NC1CCN([C@H](C)c2ccc(C(F)(F)F)cc2)CC1 [Compound I-62, N-[1-[(1R)-1-[4-(Trifluoromethyl)phenyl]ethyl]-4-piperidyl]prop-2-enamide] | < 100 |  | < 100 | 368 | 345 | 
6 | C=CC(=O)NC1[C@H]2CN(Cc3ccc(C(F)(F)F)cc3)C[C@@H]12 (stereo partly drawn) [Compound I-69, N-[(1R,5S)-3-[[4-(Trifluoromethyl)phenyl]methyl]-3-azabicyclo[3.1.0]hexan-6-yl]prop-2-enamide] | < 100 |  | < 100 | 1240 | 1160 | 
7 | C=CC(=O)Nc1cccc(C)c1Oc1ccc(Cl)cc1 [Compound I-28, N-[2-(4-Chlorophenoxy)-3-methyl-phenyl]prop-2-enamide] | > 500 | > 500 | > 500 |  |  | 
8 | C=CC(=O)Nc1ccc(-c2cn(C)cn2)c(Nc2cccc(C(F)(F)F)c2)c1 [Compound I-40, N-[4-(1-methylimidazol-4-yl)-3-[3-(trifluoromethyl)anilino]phenyl]prop-2-enamide] | < 100 | > 500 | < 100 |  |  | 
9 | C=CC(=O)N1CC[C@@H](NCc2ccc(C(F)(F)F)cc2)C1 [Compound I-211, 1-[(3R)-3-[[4-(trifluoromethyl)phenyl]methylamino]pyrrolidin-1-yl]prop-2-en-1-one] |  |  |  | 1260 | 1250 | 
10 | C=CC(=O)Nc1cc(Oc2cccc(C(F)(F)F)c2)c2ccccc2c1 [Compound I-29, N-[4-[3-(Trifluoromethyl)phenoxy]-2-naphthyl]prop-2-enamide] | < 100 | > 500 | 100 to 500 |  |  | 
11 | C=CC(=O)Nc1ccc(C)c(N(C)c2cccc(C(F)(F)F)c2)c1 [Compound I-35, N-[4-methyl-3-[N-methyl-3-(trifluoromethyl)anilino]phenyl]prop-2-enamide] | < 100 | > 500 | < 100 |  |  | 
12 | C=CC(=O)N[C@H]1Cc2ccccc2N(Cc2cccc(C(F)(F)F)c2)C1 [Compound I-60, N-[(3S)-1-[[3-(trifluoromethyl)phenyl]methyl]-3,4-dihydro-2H-quinolin-3-yl]prop-2-enamide] | 100 to 500 |  | < 100 |  |  | 
13 | C=CC(=O)N1CC[C@H](NCc2ccc(C(F)(F)F)cc2)C1 [Compound I-64, 1-[(3S)-3-[[4-(Trifluoromethyl)phenyl]methylamino]pyrrolidin-1-yl]prop-2-en-1-one] | < 100 |  | < 100 |  |  | 
14 | C=CC(=O)NC1CCC(Nc2ccc(C(F)(F)F)cc2)CC1 (stereo not shown) [Compound I-56, N-[4-[4-(trifluoromethyl)anilino]cyclohexyl]prop-2-enamide] |  |  |  |  |  | EC50 (TEAD; TEAD Reporter - MCF7 cells): > 500 nM; EC50 (H226; H226 cells): > 500 nM
15 | C=CC(=O)Nc1ccc(C)c(Oc2ccc(Cl)cc2)c1 [Compound P-5] |  |  |  |  |  | AUC0-last [1]: 397 ng·h/mL; Cmax [1]: 246 ng/mL
